From patent US11414384B2, “P300/CBP hat inhibitors” (Constellation Pharmaceuticals, Inc., priority 2018, dated 2022) come the findings set out here.

Some results are limits rather than exact numbers.

Chain of p300 HAT domain (residues 1287-1666) (Q09472 1287-1666): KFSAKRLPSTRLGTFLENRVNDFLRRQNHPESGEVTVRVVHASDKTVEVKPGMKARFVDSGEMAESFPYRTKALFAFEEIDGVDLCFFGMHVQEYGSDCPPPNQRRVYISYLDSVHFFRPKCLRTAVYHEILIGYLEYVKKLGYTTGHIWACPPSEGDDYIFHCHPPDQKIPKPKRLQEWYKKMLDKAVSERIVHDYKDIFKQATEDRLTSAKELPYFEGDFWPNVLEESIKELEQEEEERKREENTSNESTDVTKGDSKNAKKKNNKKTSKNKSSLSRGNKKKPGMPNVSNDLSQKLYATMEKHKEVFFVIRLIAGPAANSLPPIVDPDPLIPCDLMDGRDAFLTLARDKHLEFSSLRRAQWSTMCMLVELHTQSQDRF

In one assay the target is p300 HAT domain (residues 1287-1666) (Homo sapiens (Human), UniProt Q09472). Briefly: p300 HAT SPA assay (scintillation proximity assay, acetylation of biotinylated H3(1-21) peptide). Type of assay: biochemical. The note with it: P300 HAT SPA IC50, p300 HAT domain; average of at least 2 replicate titrations. The gist of the method:
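Purified p300 HAT domain reaction transferred to streptavidin plates to capture biotinylated H3(1-21) peptide, incubated 1.5 hr at RT, and read by scintillation proximity. IC50 values derived from concentration-response data.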
The molecule `O=C(c1cn(CCO)c2ccccc12)C(NCCc1ccc(Cl)cc1)c1ccccc1` (single isomer, unassigned) [128 Isomer 1] yielded an IC50 of 42.1 µM.
`O=C(c1cn(CCO)c2ccccc12)C(NCCc1ccc(Cl)cc1)c1ccccc1` (single isomer, unassigned) [128 Isomer 2]: the IC50 is 13.4 µM.
`CCn1cc(C(=O)C(NCCc2ccc(Cl)cc2)c2ccccc2)c2ccccc21` (single isomer, unassigned) [129 Isomer 1] showed an IC50 of 11.8 µM.
The same measure, in the same setting: the result for `CCn1cc(C(=O)C(NCCc2ccc(Cl)cc2)c2ccccc2)c2ccccc21` (single isomer, unassigned) [129 Isomer 2] reads 1.81 µM.
The same measure, in the same setting: with `O=C(c1cn(CC(F)(F)F)c2ccccc12)C(NCCc1ccc(Cl)cc1)c1ccccc1` (single isomer, unassigned) [130 Isomer 1] the figure was over 60 µM.

The assay is the same for the next values; noted with them: p300 HAT domain; average of at least 2 replicate titrations; read-out: P300 HAT SPA IC50.
For the molecule `CNC(=O)c1ccc(CCN[C@H](C(=O)c2c[nH]c3cc(-c4cnn(C)c4)ccc23)c2ccccc2)cc1` (single isomer, unassigned) [131 Isomer 1], the IC50 is over 30 µM.
On the same count and under the same terms, the result for `O=C(O)c1ccc(CCNC(C(=O)c2c[nH]c3ccccc23)c2ccccc2)cc1` (single isomer, unassigned) [132 Isomer 2] reads 17.9 µM; that for `NC(=O)c1ccc(CCNC(C(=O)c2c[nH]c3ccccc23)c2ccccc2)cc1` (single isomer, unassigned) [133 Isomer 1], 22.9 µM; that for `CNC(=O)c1ccc(CCNC(C(=O)c2c[nH]c3ccccc23)c2ccccc2)cc1` (single isomer, unassigned) [134 Isomer 1], over 60 µM.
Still for that read-out and setting: with `CN(C)C(=O)c1ccc(CCNC(C(=O)c2c[nH]c3ccccc23)c2ccccc2)cc1` (single isomer, unassigned) [135 Isomer 1] the figure was over 60 µM.
For `CNC(=O)Cc1ccc(CCNC(C(=O)c2c[nH]c3ccccc23)c2ccccc2)cc1` (single isomer, unassigned) [136 Isomer 1], the IC50 turned out to be 8.69 µM.
Turning to `CNC(=O)Cc1ccc(CCNC(C(=O)c2c[nH]c3ccccc23)c2ccccc2)cc1` (single isomer, unassigned) [136 Isomer 2], the IC50 is over 60 µM.
On the same count and under the same terms, the result for `CN(C)C(=O)Cc1ccc(CCNC(C(=O)c2c[nH]c3ccccc23)c2ccccc2)cc1` (single isomer, unassigned) [137 Isomer 1] reads 21.8 µM.
Same read-out and setting: the result for `CN(C)C(=O)Cc1ccc(CCNC(C(=O)c2c[nH]c3ccccc23)c2ccccc2)cc1` (single isomer, unassigned) [137 Isomer 2] reads over 60 µM.
With `Cn1cc(-c2ccc3c(C(=O)C(NCCc4ccc(C(=O)O)cc4)c4ccccc4)c[nH]c3c2)cn1` (single isomer, unassigned) [138 Isomer 2], the IC50 worked out at 4.3 µM.
On the same count and under the same terms, the result for `Cn1cc(-c2ccc3c(C(=O)C(NCCc4ccc(C(N)=O)cc4)c4ccccc4)c[nH]c3c2)cn1` (single isomer, unassigned) [139 Isomer 1] reads 8.29 µM; that for `CC(Cc1ccc(C(N)=O)cc1)NC(C(=O)c1c[nH]c2ccccc12)c1ccccc1` (single isomer, unassigned) [140 Isomer 1], over 5 µM.
Turning to `CC(Cc1ccc(C(N)=O)cc1)NC(C(=O)c1c[nH]c2ccccc12)c1ccccc1` (single isomer, unassigned) [140 Isomer 2], the IC50 came out at 1.54 µM.
Same read-out and setting: with `CC(Cc1ccc(C(N)=O)cc1)NC(C(=O)c1c[nH]c2ccccc12)c1ccccc1` (single isomer, unassigned) [140 Isomer 3] the figure was over 5 µM.
`CC(Cc1ccc(C(N)=O)cc1)NC(C(=O)c1c[nH]c2ccccc12)c1ccccc1` (single isomer, unassigned) [140 Isomer 4]: the IC50 was over 5 µM.
The same measure, in the same setting: the result for `CC(CNC(C(=O)c1c[nH]c2ccccc12)c1ccccc1)c1ccc(C(N)=O)cc1` (single isomer, unassigned) [141 Isomer 1] reads 0.872 µM.
The same measure, in the same setting: the result for `CC(CNC(C(=O)c1c[nH]c2ccccc12)c1ccccc1)c1ccc(C(N)=O)cc1` (single isomer, unassigned) [141 Isomer 2] reads over 5 µM.
Take `Cn1cc(-c2ccc3c(C(=O)C(NCCc4ccc(C(=O)O)cc4Cl)c4ccccc4)c[nH]c3c2)cn1` (single isomer, unassigned) [142 Isomer 1]: the IC50 stood at 3.27 µM.
Consider `COc1cccc2c(C(=O)[C@@H](NCCc3ccc(S(N)(=O)=O)cc3)c3ccccc3)c[nH]c12` (single isomer, unassigned) [144 Isomer 1], for which the IC50 turned out to be 9.95 µM.
On to `COc1ccc(CCN[C@H](C(=O)c2c[nH]c3c(C(C)C)cccc23)c2ccccc2)cc1` (single isomer, unassigned) [145 Isomer 2], for which the half-inhibitory concentration (IC50) was over 60 µM.
Still for that read-out and setting: the result for `CNC(=O)c1cccc2c(C(=O)C(NCCc3ccc(Cl)cc3Cl)c3ccccc3)c[nH]c12` (single isomer, unassigned) [147 Isomer 1] reads over 30 µM; that for `CN(C)C(=O)c1cccc2c(C(=O)C(NCCc3ccc(Cl)cc3Cl)c3ccccc3)c[nH]c12` (single isomer, unassigned) [148 Isomer 1], over 30 µM; that for `CN(C)CCNC(=O)c1cccc2c(C(=O)C(NCCc3ccc(Cl)cc3Cl)c3ccccc3)c[nH]c12` (single isomer, unassigned) [149 Isomer 2], 11.6 µM.
Still for that read-out and setting: the result for `COCCNC(=O)c1cccc2c(C(=O)C(NCCc3ccc(Cl)cc3Cl)c3ccccc3)c[nH]c12` (single isomer, unassigned) [150 Isomer 2] reads over 30 µM; that for `CNC(=O)c1ccc2c(C(=O)C(NCCc3ccc(Cl)cc3Cl)c3ccccc3)c[nH]c2c1` (single isomer, unassigned) [151 Isomer 1], 11.5 µM.
Still for that read-out and setting: the result for `CN(C)C(=O)c1ccc2c(C(=O)C(NCCc3ccc(Cl)cc3Cl)c3ccccc3)c[nH]c2c1` (single isomer, unassigned) [152 Isomer 1] reads over 30 µM; that for `N#Cc1ccc(CCNC(C(=O)c2c[nH]c3cc(C(=O)NCC(F)(F)F)ccc23)c2ccccc2)cc1` (single isomer, unassigned) [157 Isomer 1], 1.2 µM; that for `CNC(=O)CCc1ccc2c(C(=O)C(NCCc3ccc(F)cc3)c3ccccc3)c[nH]c2c1` (single isomer, unassigned) [158 Isomer 2], over 5 µM.
Consider `O=C(O)CCc1ccc2c(C(=O)C(NCCc3ccc(F)cc3)c3ccccc3)c[nH]c2c1` (single isomer, unassigned) [159 Isomer 1], for which the half-inhibitory concentration (IC50) came out at 25.2 µM.
As to `N#Cc1ccc(CCNC(C(=O)c2c[nH]c3cc(CC(=O)O)ccc23)c2ccccc2)cc1` (single isomer, unassigned) [160 Isomer 1], the IC50 is over 5 µM.
Same read-out and setting: the result for `N#Cc1ccc(CCNC(C(=O)c2c[nH]c3cc(CC(=O)O)ccc23)c2ccccc2)cc1` (single isomer, unassigned) [160 Isomer 2] reads 4.01 µM; that for `CC(C)(O)CNC(=O)c1ccc2c(C(=O)C(NCCc3ccc(C#N)cc3)c3ccccc3)c[nH]c2c1` (single isomer, unassigned) [161 Isomer 1], 3.35 µM.
Take `N#Cc1ccc(CCNC(C(=O)c2c[nH]c3cc(C(=O)NC4CN(CC(F)(F)F)C4)ccc23)c2ccccc2)cc1` (single isomer, unassigned) [162 Isomer 1]: the IC50 stood at 4.86 µM.
Still for that read-out and setting: the result for `N#Cc1ccc(CCNC(C(=O)c2c[nH]c3cc(C(=O)NC4CN(CC(F)(F)F)C4)ccc23)c2ccccc2)cc1` (single isomer, unassigned) [162 Isomer 2] reads 0.135 µM; that for `CCN1CC(NC(=O)c2ccc3c(C(=O)C(NCCc4ccc(C#N)cc4)c4ccccc4)c[nH]c3c2)C1` (single isomer, unassigned) [163 Isomer 1], 2.84 µM; that for `CCN(CC)C(=O)c1ccc2c(C(=O)C(NCCc3ccc(C#N)cc3)c3ccccc3)c[nH]c2c1` (single isomer, unassigned) [165 Isomer 1], 4.33 µM.
With `CCN(CC)C(=O)c1ccc2c(C(=O)C(NCCc3ccc(C#N)cc3)c3ccccc3)c[nH]c2c1` (single isomer, unassigned) [165 Isomer 2], the IC50 stood at 2.36 µM.
As to `N#Cc1ccc(CCNC(C(=O)c2c[nH]c3cc(C(=O)NC4CS(=O)(=O)C4)ccc23)c2ccccc2)cc1` (single isomer, unassigned) [166 Isomer 1], the IC50 came to 0.123 µM.
The same measure, in the same setting: with `CC(C)NC(=O)c1ccc2c(C(=O)C(NCCc3ccc(C#N)cc3)c3ccccc3)c[nH]c2c1` (single isomer, unassigned) [167 Isomer 1] the figure was 0.0232 µM; with `CC(C)NC(=O)c1ccc2c(C(=O)C(NCCc3ccc(C#N)cc3)c3ccccc3)c[nH]c2c1` (single isomer, unassigned) [167 Isomer 2], 0.746 µM; with `C[C@H](O)CNC(=O)c1ccc2c(C(=O)C(NCCc3ccc(C#N)cc3)c3ccccc3)c[nH]c2c1` (single isomer, unassigned) [168 Isomer 1], 4.12 µM.
On the same count and under the same terms, the result for `C[C@H](O)CNC(=O)c1ccc2c(C(=O)C(NCCc3ccc(C#N)cc3)c3ccccc3)c[nH]c2c1` (single isomer, unassigned) [168 Isomer 2] reads 0.0531 µM; that for `C[C@H](NC(=O)c1ccc2c(C(=O)C(NCCc3ccc(C#N)cc3)c3ccccc3)c[nH]c2c1)C(F)(F)F` (single isomer, unassigned) [169 Isomer 1], 1.79 µM; that for `C[C@H](NC(=O)c1ccc2c(C(=O)C(NCCc3ccc(C#N)cc3)c3ccccc3)c[nH]c2c1)C(F)(F)F` (single isomer, unassigned) [169 Isomer 2], 0.0871 µM.
Same read-out and setting: the result for `C[C@@H](NC(=O)c1ccc2c(C(=O)C(NCCc3ccc(C#N)cc3)c3ccccc3)c[nH]c2c1)C(F)(F)F` (single isomer, unassigned) [170 Isomer 1] reads 0.296 µM.

Staying with this assay, now noted: read-out: P300 HAT SPA IC50; p300 HAT domain; average of at least 2 replicate titrations.
For `O=C(c1cn(CC(F)(F)F)c2ccccc12)C(NCCc1ccc(Cl)cc1)c1ccccc1` (single isomer, unassigned) [130 Isomer 2], the IC50 is over 60 µM.

Usually IC50 stands for the midpoint of a concentration-inhibition curve.
